# Patent publication US3934036A, “N-benzenesulfonyl-β-alanine hydrazide useful as an immunosuppressive agent” (priority 1975, dated 1976)
# Entries after “also recorded” stand apart in the source; their conditions may differ.
# Assays:
# 7S plaque-forming cells = experiment: Antibody production to sheep erythrocytes, 7S plaque-forming cells, comparison with other agents; details: i.p.; for Spleen weight, mean ± S.E. / 7S PFC/10^6 spleen cells, mean ± S.E. / Mean body weight gain: 8 days; for Spleen weight, mean ± S.E.: control 125 ± 16; for 7S PFC/10^6 spleen cells, mean ± S.E.: control 1045 ± 202; for Mean body weight gain: control +1.0
# Procedure: The effect of KH-125 on antibody production in ddY mice was examined by Cunningham and Szenberg's plaque technique (Immunology, 14, 599, 1968) and compared with other agents.
# Mice were immunized by intravenous injection of washed sheep erythrocytes (4 × 10^8 cells/mouse). Administration of KH-125 was made orally for 4 consecutive days from the day of antigen injection. 19S Plaque-forming cells (PFC) were counted 4 days after immunization.
# In comparative experiment, test agents were administered intraperitoneally for 8 consecutive days from one day before immunization. 7S PFC's were counted 9 days after immunization.
# [1] = established immunosuppressive drugs; cited from earlier work
# adjuvant arthritis = experiment: Adjuvant arthritis in rats, prophylactic experiment; details: for increase in arthritis score / swelling of adjuvant-injected and non-injected feet: once daily for 17 days
# [2] = tested on: antibody formation to sheep erythrocytes; experiment: Screening for ability to suppress antibody formation to sheep erythrocytes in mice; assay type: in vivo
# Procedure: In an attempt to find an immunosuppressive agent having a lowered toxicity, about fifty acid hydrazides, mainly amino acid hydrazide derivatives, were synthesized and screened for their ability to suppress the antibody formation to sheep erythrocytes in mice. […] Further detailed pharmacological and toxicological studies were then performed about KH-125.
# [3] = Acute toxicity in mice (LD50); assay type: in vivo, ddY mice; details: mouse, in vivo
# Procedure: (§1) The acute toxicity of KH-125 was studied in both sexes of ddY mice and Wistar rats. The LD50 values were calculated by the method of Litchfield and Wilcoxon (J. Pharmacol. Exptl. Ther., 96, 99, 1949).
# ddY mice = experiment: Acute toxicity in mice (LD50); assay type: in vivo; details: mice, male vs female
# Procedure: as §1
# [4] = Acute toxicity in rats (LD50); assay type: in vivo, Wistar rats; details: rat, in vivo
# Procedure: as §1
# Wistar rats [5] = experiment: Acute toxicity in rats (LD50); assay type: in vivo; details: rats, male vs female
# Procedure: as §1
# Wistar rats [6] = experiment: Chronic toxicity study, 6 months oral; assay type: in vivo
# Procedure: The chronic toxicity study of KH-125 was carried out in Wistar rats of both sexes. Rats were treated orally with KH-125 for 6 months at the dose levels of 0 (control), 10, 20 and 40 mg/kg/day.
# 19S plaque-forming cells = experiment: Antibody production to sheep erythrocytes, 19S plaque-forming cells (oral administration); assay type: in vivo, ddY mice; details: 4 days; for Mean body weight gain: control +0.8
# Text: Mice were immunized by intravenous injection of washed sheep erythrocytes (4 × 10^8 cells/mouse). […] 19S Plaque-forming cells (PFC) were counted 4 days after immunization.
# nephrotoxic nephritis [7] = experiment: Nephrotoxic nephritis in rats, prophylactic experiment; assay type: in vivo, Wistar rats
# Procedure: Protein-uria was measured 18 days after nephrotoxin injection, then for electron microscopic examination the rats were killed 2 days later.
# Urinary protein was measured 18 days after the nephrotoxin-injection, and then the nephrotic rats were sacrificed 2 days later for histopathological examinations.
# nephrotoxic nephritis [8] = experiment: Nephrotoxic nephritis in rats, comparative experiment; assay type: in vivo, Wistar rats; details: p.o. once daily, 15 days; protein-uria, fusion index, basement membrane thickening
# Procedure: Protein-uria was measured 18 days after nephrotoxin injection, then for electron microscopic examination the nephrotic rats were killed 3 days later. See legend of FIG. 2 for other details.
# The effect of KH-125 on nephrotoxic nephritis in Wistar rats was evaluated from the following three points: (1) urinary protein measurements, (2) electron microscopic findings and (3) light microscopic findings. Nephrotic rats were prepared according to Shibata's method. (Ths Saishin-Igaku, 20, 1089, 1965).
# In a comparative experiment, test agents were administered once daily: KH-125, 15 days during days 0 - 10 and 15 - 18 (p.o.); 6-mercaptopurine (6-MP), 6 days during days 0 - 5 (p.o.); cyclophosphamide, 11 days during days 0 - 10 (i.p.); and prednisolone, 11 days during days 0 - 10 (i.p.), starting from the day of nephrotoxin-injection. Urinary protein was measured 18 days after the injection of nephrotoxin, and then the animals were sacrificed 3 days later for histopathological examinations.
# rats, rabbits and mice = experiment: Subacute and chronic toxicity, teratological and carcinogenic studies (summary); assay type: in vivo; details: subacute, chronic
# Procedure: (§2) Its toxicological properties were evaluated by subacute and chronic toxicity tests in rats, by teratological studies in rats and rabbits and also by carcinogenic tests in mice and rats.
# rats and rabbits = experiment: Teratological studies; assay type: in vivo
# Procedure: as §2
# mice and rats = experiment: Carcinogenic tests; assay type: in vivo
# Procedure: as §2
# [9] = 6 months, 10, 20 and 40 mg/kg/day
# [10] = oral, electron microscopic findings
structure (smiles),measurement,setting,value
"Sc1ncnc2nc[nH]c12 [6-mercaptopurine, reference compound]","Spleen weight, mean ± S.E.",7S plaque-forming cells; 30 mg/kg/day,103 ± 12 mg
same,"7S PFC/10^6 spleen cells, mean ± S.E.","7S plaque-forming cells; 30 mg/kg/day, p < 0.05",385 ± 83 7SPFC/10^6 spleen cells
same,teratogenic and carcinogenic effect,[1],inevitably shared
same,rats died during the experiment,"adjuvant arthritis; oral, 30 mg/kg/day, 17 days",Three of 7
same,increase in arthritis score,adjuvant arthritis; oral,dose-dependently suppressed
same,swelling of adjuvant-injected and non-injected feet,adjuvant arthritis; oral,dose-dependently suppressed
"NNC(=O)CCNS(=O)(=O)c1ccccc1 [KH-125, N-benzenesulfonyl-β-alanine hydrazide]",immunosuppressive activity among about fifty acid hydrazides tested,"[2]; mice, antibody formation to sheep erythrocytes",most potent immunosuppressive activity
same,acute toxicity among the compounds tested,[2]; screening,fairly lower acute toxicity
same,LD50,"[3]; ip, female mice",1410 mg/kg
same,LD50,"[3]; ip, male mice",1230 mg/kg
same,LD50,"[3]; po, female mice",1570 mg/kg
same,LD50,"[3]; po, male mice",1520 mg/kg
same,LD50,"[3]; sc, female mice",1440 mg/kg
same,LD50,"[3]; sc, male mice",1150 mg/kg
same,sex difference concerning the acute toxicity,ddY mice,No sex difference
same,LD50,"[4]; ip, female rats",2580 mg/kg
same,LD50,"[4]; ip, male rats",2150 mg/kg
same,LD50,"[4]; po, female rats",> 4000 mg/kg
same,LD50,"[4]; po, male rats",> 4000 mg/kg
same,LD50,"[4]; sc, female rats",> 4000 mg/kg
same,LD50,"[4]; sc, male rats",> 4000 mg/kg
same,sex difference concerning the acute toxicity,Wistar rats [5],No sex difference
same,body weight gain,"Wistar rats [6]; 6 months, 40 mg/kg/day",slightly inhibited
same,erythrocyte count and hemoglobin,Wistar rats [6]; [9],dose-dependent decrease
same,"general symptoms, food intake, urinalysis, and fractionation of serum protein",Wistar rats [6]; [9],No significant effects
same,histopathological examinations,Wistar rats [6]; [9],No toxic effects which could be attributed to the drug were detected
same,"serum enzyme activities, S-GOT and S-GPT",Wistar rats [6]; [9],slight but dose-dependent increases
same,survival,Wistar rats [6]; [9],All rats survived
same,"Spleen weight, mean ± S.E.","19S plaque-forming cells; 40 mg/kg/day, control 181 ± 8",135 ± 20 mg
same,"19S PFC/10^6 spleen cells, mean ± S.E.","19S plaque-forming cells; 40 mg/kg/day, control 1905 ± 267",1383 ± 327 19S PFC/10^6 spleen cells
same,Mean body weight gain,19S plaque-forming cells; 40 mg/kg/day,+1.0 g
same,"Spleen weight, mean ± S.E.","19S plaque-forming cells; 80 mg/kg/day, control 181 ± 8, p < 0.05",139 ± 9 mg
same,"19S PFC/10^6 spleen cells, mean ± S.E.","19S plaque-forming cells; 80 mg/kg/day, control 1905 ± 267, p < 0.01",368 ± 124 19S PFC/10^6 spleen cells
same,Mean body weight gain,19S plaque-forming cells; 80 mg/kg/day,-0.8 g
same,"Spleen weight, mean ± S.E.","19S plaque-forming cells; 160 mg/kg/day, control 181 ± 8",164 ± 14 mg
same,"19S PFC/10^6 spleen cells, mean ± S.E.","19S plaque-forming cells; 160 mg/kg/day, control 1905 ± 267, p < 0.01",329 ± 46 19S PFC/10^6 spleen cells
same,Mean body weight gain,19S plaque-forming cells; 160 mg/kg/day,-0.5 g
same,appearance of 19S PFC,19S plaque-forming cells; 40-160 mg/kg/day,dose-dependently suppressed
same,"Spleen weight, mean ± S.E.","7S plaque-forming cells; 200 mg/kg/day, p < 0.01",60 ± 8 mg
same,"7S PFC/10^6 spleen cells, mean ± S.E.","7S plaque-forming cells; 200 mg/kg/day, p < 0.01",233 ± 63 7SPFC/10^6 spleen cells
same,Mean body weight gain,7S plaque-forming cells; 200 mg/kg/day,-4.5 g
same,"suppressive effect on the appearance of 7S PFC, compared with other agents",7S plaque-forming cells; 8 consecutive days,higher than that of prednisolone or 6-mercaptopurine; also recorded: less effective than cyclophosphamide
same,light microscopic findings,nephrotoxic nephritis [7]; oral,good improvement of nephritis
same,fusion index of epithelial foot processes,nephrotoxic nephritis [7]; [10],improved
same,thickening of glomerular basement membrane,nephrotoxic nephritis [7]; [10],suppressed
same,protein-uria,"nephrotoxic nephritis [7]; oral, twice a day, 18 days after nephrotoxin injection",decreased dose-dependently
same,suppression of experimental nephrotoxic nephritis (summary),nephrotoxic nephritis [7]; rats,suppress adjuvant arthritis as well as experimental nephrotoxic nephritis
same,"suppression of nephrotoxic nephritis, compared with 6-mercaptopurine, cyclophosphamide and prednisolone",nephrotoxic nephritis [8],most effectively suppressed
same,toxicity compared with well-known immunosuppressive agents,"rats, rabbits and mice",considerably lower toxicity than well-known immunosuppressive agents
same,teratogenic effect,rats and rabbits,neither teratogenic nor carcinogenic effect
same,carcinogenic effect,mice and rats,neither teratogenic nor carcinogenic effect
same,rebound of foot swelling after withdrawal,adjuvant arthritis; after withdrawal,not prominent
same,survival during the experiment,"adjuvant arthritis; oral, as high as 80 mg/kg/day, 17 days",survived throughout the test period
same,increase in arthritis score,adjuvant arthritis; oral,dose-dependently suppressed
same,swelling of adjuvant-injected and non-injected feet,adjuvant arthritis; oral,dose-dependently suppressed
same,suppression of adjuvant arthritis (summary),adjuvant arthritis; rats,suppress adjuvant arthritis
same,safety margin (maximal tolerated dose in repeated administration versus effective dose) relative to 6-mercaptopurine,"adjuvant arthritis; versus 6-mercaptopurine, adjuvant arthritis",about 3 times
O=P1(N(CCCl)CCCl)NCCCO1 (stereo not drawn) [cyclophosphamide],"Spleen weight, mean ± S.E.","7S plaque-forming cells; 20 mg/kg/day, p < 0.05",87 ± 7 mg
same,"7S PFC/10^6 spleen cells, mean ± S.E.","7S plaque-forming cells; 20 mg/kg/day, p < 0.01",61 ± 8 7SPFC/10^6 spleen cells
same,Mean body weight gain,7S plaque-forming cells; 20 mg/kg/day,+0.2 g
same,teratogenic and carcinogenic effect,[1],inevitably shared
C[C@]12C=CC(=O)C=C1CC[C@@H]1[C@@H]2[C@@H](O)C[C@@]2(C)[C@H]1CC[C@]2(O)C(=O)CO [prednisolone],"Spleen weight, mean ± S.E.",7S plaque-forming cells; 4 mg/kg/day,116 ± 19 mg
same,"7S PFC/10^6 spleen cells, mean ± S.E.",7S plaque-forming cells; 4 mg/kg/day,706 ± 178 7SPFC/10^6 spleen cells
